According to ChEMBL document CHEMBL3885881, “DrugMatrix”:

Species: Rattus norvegicus
Type: toxicity, organism-based, Sprague-Dawley
Settings: in vivo, po, route oral GAVAGE, vehicle 100 % SALINE; for ABSOLUTE EOSINOPHIL / ABSOLUTE LYMPHOCYTE / ABSOLUTE MONOCYTE / ABSOLUTE SEGMENTED NEUTROPHIL / BASOPHIL / EOSINOPHIL / ERYTHROCYTE COUNT / HEMATOCRIT / HEMOGLOBIN / LEUKOCYTE COUNT / LYMPHOCYTE / MEAN CORPUSCULAR HEMOGLOBIN / MEAN CORPUSCULAR HEMOGLOBIN CONCENTRATION / MONOCYTE / NEUTROPHIL / NUCLEATED RED BLOOD CELLS / PLATELET COUNT: tissue Blood; for ALANINE AMINOTRANSFERASE / ALBUMIN / ALKALINE PHOSPHATASE / ASPARTATE AMINOTRANSFERASE / BLOOD UREA NITROGEN / CARBON DIOXIDE / CHLORIDE / CHOLESTEROL / CREATINE PHOSPHOKINASE / CREATININE / GLUCOSE / LACTATE DEHYDROGENASE / LIPASE / PHOSPHORUS / POTASSIUM / SODIUM / TOTAL BILIRUBIN / TOTAL PROTEIN / URIC ACID: tissue Plasma
[1] = 700 mg/kg, 24 h, dose level Low, time 1 day
[2] = 2100 mg/kg, 6 h, dose level High, time 0.25 day
[3] = 2100 mg/kg, 24 h, dose level High, time 1 day

Description: DrugMatrix - Regimen: Single

CN(C)C=O [DIMETHYLFORMAMIDE]
ABSOLUTE EOSINOPHIL [1]: 0 CELLS/uL | ABSOLUTE LYMPHOCYTE [1]: 11354.83 CELLS/uL | ABSOLUTE MONOCYTE [1]: 102.33 CELLS/uL | ABSOLUTE SEGMENTED NEUTROPHIL [1]: 726.17 CELLS/uL | BASOPHIL [1]: 0% | EOSINOPHIL [1]: 0% | ERYTHROCYTE COUNT [1]: 5.12 x10E6/uL | HEMATOCRIT [1]: 33.43% | HEMOGLOBIN [1]: 13.52 G/DL | LEUKOCYTE COUNT [1]: 12.18 x10E3/uL | LYMPHOCYTE [1]: 93.17% | MEAN CORPUSCULAR HEMOGLOBIN [1]: 26.43 pg | MEAN CORPUSCULAR HEMOGLOBIN CONCENTRATION [1]: 40.52 G/DL | MONOCYTE [1]: 0.83% | NEUTROPHIL [1]: 6% | NUCLEATED RED BLOOD CELLS [1]: 0 /100WBC | PLATELET COUNT [1]: 1092.67 x10E3/uL | ALANINE AMINOTRANSFERASE [1]: 23.17 u/L | ALBUMIN [1]: 4.17 G/DL | ALKALINE PHOSPHATASE [1]: 336.83 u/L | ASPARTATE AMINOTRANSFERASE [1]: 50.5 u/L | BLOOD UREA NITROGEN [1]: 12.5 mg/dL | CARBON DIOXIDE [1]: 31.17 mmol/L | CHLORIDE [1]: 96.83 MEQ/L | CHOLESTEROL [1]: 74.83 mg/dL | CREATINE PHOSPHOKINASE [1]: 314.83 u/L | CREATININE [1]: 0.19 mg/dL | GLUCOSE [1]: 144.5 mg/dL | LACTATE DEHYDROGENASE [1]: 95 u/L | LIPASE [1]: 9.67 u/L | PHOSPHORUS [1]: 10.98 mg/dL | POTASSIUM [1]: 5.69 MEQ/L | SODIUM [1]: 142.42 MEQ/L | TOTAL BILIRUBIN [1]: 0.12 mg/dL | TOTAL PROTEIN [1]: 6.2 G/DL | URIC ACID [1]: 0.68 mg/dL | ABSOLUTE EOSINOPHIL [2]: 125.17 CELLS/uL | ABSOLUTE LYMPHOCYTE [2]: 14316 CELLS/uL | ABSOLUTE MONOCYTE [2]: 63 CELLS/uL | ABSOLUTE SEGMENTED NEUTROPHIL [2]: 1412.5 CELLS/uL | BASOPHIL [2]: 0% | EOSINOPHIL [2]: 0.83% | ERYTHROCYTE COUNT [2]: 5.21 x10E6/uL | HEMATOCRIT [2]: 35.07% | HEMOGLOBIN [2]: 12.68 G/DL | LEUKOCYTE COUNT [2]: 15.92 x10E3/uL | LYMPHOCYTE [2]: 89.67% | MEAN CORPUSCULAR HEMOGLOBIN [2]: 24.33 pg | MEAN CORPUSCULAR HEMOGLOBIN CONCENTRATION [2]: 36.2 G/DL | MONOCYTE [2]: 0.33% | NEUTROPHIL [2]: 9.17% | NUCLEATED RED BLOOD CELLS [2]: 0 /100WBC | PLATELET COUNT [2]: 1045.5 x10E3/uL | ALANINE AMINOTRANSFERASE [2]: 61 u/L | ALBUMIN [2]: 4.12 G/DL | ALKALINE PHOSPHATASE [2]: 276.83 u/L | ASPARTATE AMINOTRANSFERASE [2]: 108.5 u/L | BLOOD UREA NITROGEN [2]: 6.5 mg/dL | CARBON DIOXIDE [2]: 20.17 mmol/L | CHLORIDE [2]: 106 MEQ/L | CHOLESTEROL [2]: 72.83 mg/dL | CREATINE PHOSPHOKINASE [2]: 210.67 u/L | CREATININE [2]: 0.24 mg/dL | GLUCOSE [2]: 180 mg/dL | LACTATE DEHYDROGENASE [2]: 149.33 u/L | LIPASE [2]: 8.17 u/L | PHOSPHORUS [2]: 13.73 mg/dL | SODIUM [2]: 144.38 MEQ/L | TOTAL BILIRUBIN [2]: 0.1 mg/dL | TOTAL PROTEIN [2]: 5.32 G/DL | URIC ACID [2]: 2.23 mg/dL | ABSOLUTE EOSINOPHIL [3]: 20.83 CELLS/uL | ABSOLUTE LYMPHOCYTE [3]: 12212.83 CELLS/uL | ABSOLUTE MONOCYTE [3]: 201.33 CELLS/uL | ABSOLUTE SEGMENTED NEUTROPHIL [3]: 481.67 CELLS/uL | BASOPHIL [3]: 0% | EOSINOPHIL [3]: 0.17% | ERYTHROCYTE COUNT [3]: 5.11 x10E6/uL | HEMATOCRIT [3]: 32.92% | HEMOGLOBIN [3]: 13.1 G/DL | LEUKOCYTE COUNT [3]: 12.92 x10E3/uL | LYMPHOCYTE [3]: 94.67% | MEAN CORPUSCULAR HEMOGLOBIN [3]: 25.65 pg | MEAN CORPUSCULAR HEMOGLOBIN CONCENTRATION [3]: 39.83 G/DL | MONOCYTE [3]: 1.5% | NEUTROPHIL [3]: 3.67% | NUCLEATED RED BLOOD CELLS [3]: 0.17 /100WBC | PLATELET COUNT [3]: 1033.5 x10E3/uL | ALANINE AMINOTRANSFERASE [3]: 24.17 u/L | ALBUMIN [3]: 4.07 G/DL | ALKALINE PHOSPHATASE [3]: 292.33 u/L | ASPARTATE AMINOTRANSFERASE [3]: 43.17 u/L | BLOOD UREA NITROGEN [3]: 10.5 mg/dL | CARBON DIOXIDE [3]: 30.5 mmol/L | CHLORIDE [3]: 99.17 MEQ/L | CHOLESTEROL [3]: 80.33 mg/dL | CREATINE PHOSPHOKINASE [3]: 164.67 u/L | CREATININE [3]: 0.19 mg/dL | GLUCOSE [3]: 147.33 mg/dL | LACTATE DEHYDROGENASE [3]: 73.33 u/L | LIPASE [3]: 10.33 u/L | PHOSPHORUS [3]: 10.72 mg/dL | POTASSIUM [3]: 5.2 MEQ/L | SODIUM [3]: 143.78 MEQ/L | TOTAL BILIRUBIN [3]: 0.1 mg/dL | TOTAL PROTEIN [3]: 5.97 G/DL | URIC ACID [3]: 0.63 mg/dL
